We go through one compound from patent publication US20260108513A1 (Pfizer Inc., priority 2022, published 2026).

The subject of this data set is mCRPC patients. Description: TALAPRO-2 Part 2: safety, adverse events and supportive care (safety population). The conditions noted are these: talazoparib+enzalutamide group. It is filed as in vivo, human. An excerpt: This population was the primary population for evaluating safety.
Treatment-emergent is defined as the time between the first dose of study treatment to 28 days after the last dose of the last study treatment, or before any new antineoplastic therapy, whichever occurs first.

Turning to `Cn1ncnc1[C@H]1c2n[nH]c(=O)c3cc(F)cc(c23)N[C@@H]1c1ccc(F)cc1` [talazoparib, (8S,9R)-5-fluoro-8-(4-fluorophenyl)-9-(1-methyl-1H-1,2,4-triazol-5-yl)-8,9-dihydro-2H-pyrido[4,3,2-de]phthalazin-3(7H)-one], the “median time to onset of first G≥3 anemia” value came to 3.3 months and the “recurrent G3-4 anemia” value worked out at 20.6%.
